From ChEMBL document CHEMBL1146691, “Conformationally-flexible benzamide analogues as dopamine D3 and sigma 2 receptor ligands” (Bioorg Med Chem Lett, 2004) come the findings set out here.

One assay has as its target D(3) dopamine receptor (Rattus norvegicus, UniProt P19020). Briefly: biochemical.
For another assay, the target named is D(2) dopamine receptor (Rattus norvegicus, UniProt P61169). Briefly: biochemical.
The target in a further assay is T1, D(4) dopamine receptor (Homo sapiens, UniProt P21917).
T1 sequence (P21917 whole entry): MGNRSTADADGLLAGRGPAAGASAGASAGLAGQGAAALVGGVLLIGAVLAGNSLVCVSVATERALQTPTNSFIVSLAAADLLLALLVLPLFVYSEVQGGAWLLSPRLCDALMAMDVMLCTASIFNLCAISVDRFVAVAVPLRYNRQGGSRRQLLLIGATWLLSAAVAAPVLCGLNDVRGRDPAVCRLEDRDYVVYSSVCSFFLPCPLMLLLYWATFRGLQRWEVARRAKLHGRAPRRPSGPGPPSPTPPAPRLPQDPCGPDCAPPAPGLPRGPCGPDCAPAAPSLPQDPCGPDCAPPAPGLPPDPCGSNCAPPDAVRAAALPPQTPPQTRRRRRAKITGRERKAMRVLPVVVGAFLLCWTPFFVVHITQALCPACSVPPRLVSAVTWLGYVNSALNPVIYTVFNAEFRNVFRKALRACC

Chain of D(2) dopamine receptor (P61169 whole entry): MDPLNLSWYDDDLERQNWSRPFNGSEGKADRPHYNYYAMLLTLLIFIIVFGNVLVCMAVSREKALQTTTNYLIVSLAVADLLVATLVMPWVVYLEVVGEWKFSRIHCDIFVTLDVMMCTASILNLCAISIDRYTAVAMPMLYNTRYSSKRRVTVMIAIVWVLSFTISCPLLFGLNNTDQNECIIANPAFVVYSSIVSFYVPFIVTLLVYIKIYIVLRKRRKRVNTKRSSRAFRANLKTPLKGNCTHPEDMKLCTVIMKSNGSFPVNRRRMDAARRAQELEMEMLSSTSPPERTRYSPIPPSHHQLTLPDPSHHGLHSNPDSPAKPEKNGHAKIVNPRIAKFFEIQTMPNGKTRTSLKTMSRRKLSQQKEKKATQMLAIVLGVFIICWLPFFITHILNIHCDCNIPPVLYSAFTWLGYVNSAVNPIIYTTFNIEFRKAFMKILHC
Chain of D(3) dopamine receptor (P19020 whole entry): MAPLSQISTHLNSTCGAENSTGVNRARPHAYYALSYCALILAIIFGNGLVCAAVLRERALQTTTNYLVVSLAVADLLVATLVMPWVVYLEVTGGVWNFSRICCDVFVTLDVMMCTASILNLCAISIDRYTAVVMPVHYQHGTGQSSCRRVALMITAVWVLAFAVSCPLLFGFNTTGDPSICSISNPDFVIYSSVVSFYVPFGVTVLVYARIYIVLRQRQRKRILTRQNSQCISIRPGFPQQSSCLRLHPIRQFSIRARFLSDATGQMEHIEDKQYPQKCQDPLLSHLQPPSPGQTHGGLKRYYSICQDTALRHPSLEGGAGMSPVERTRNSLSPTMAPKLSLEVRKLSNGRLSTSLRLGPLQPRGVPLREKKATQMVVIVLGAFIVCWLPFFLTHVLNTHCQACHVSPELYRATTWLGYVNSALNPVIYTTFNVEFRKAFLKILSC

A word on the Ki: it is the equilibrium dissociation constant of an inhibitor or competing ligand from its target. A higher Ki goes with weaker binding. For `COc1cc2c(cc1OC)CN(Cc1ccc(-c3cc(Br)cc(OC)c3OC)[nH]1)CC2`, the Ki was 3.9 nM on D(3) dopamine receptor and 33 nM on D(2) dopamine receptor.
Regarding `COc1cc2c(cc1OC)CN(CCNC(=O)c1cc(C)ccc1OC)CC2`, the Ki on Sigma 2 receptor came out at 13.3 nM.
At Sigma 2 receptor, `COc1cc2c(cc1OC)CN(CCNC(=O)c1cc(Br)ccc1OC)CC2` showed a Ki of 12.4 nM.
Regarding `COc1c(C(=O)NCCN2CCc3ccccc3C2)cc(Br)c2ccccc12`, at Sigma 2 receptor, affinity was put at a Ki of 47.7 nM.
Turning to `COc1cc2c(cc1OC)CN(CCNC(=O)c1cc(Br)c3ccccc3c1OC)CC2`, on Sigma 2 receptor, the affinity, expressed as Ki, was 21.2 nM.
As for `COc1cc(Br)cc(C(=O)NCCN2CCc3ccccc3C2)c1OC`, the Ki on D(4) dopamine receptor was 47.9 nM; on Sigma 2 receptor, 716 nM.
For the molecule `COc1cc2c(cc1OC)CN(CCNC(=O)c1cc(Br)cc(OC)c1OC)CC2`, the inhibitory constant (Ki) at D(4) dopamine receptor was 265 nM; on Sigma 2 receptor it was 16.4 nM.
Take `COc1cc(Br)cc(C(=O)NCCCCN2CCN(c3cccc(Cl)c3Cl)CC2)c1OC`: the Ki at D(4) dopamine receptor turned out to be 800 nM; at Sigma 2 receptor, 75 nM.
Take `COc1cc2c(cc1OC)CN(CCCCNC(=O)c1cc(Br)c3ccccc3c1OC)CC2`: at Sigma 2 receptor, the affinity, expressed as Ki, was 17.6 nM.
At Sigma 2 receptor, `COc1ccc(Br)cc1C(=O)NCCN1CCc2ccccc2C1` registered an inhibition constant (Ki) of 89.4 nM.
As to `COc1c(C(=O)NC2CCN(C3C4CC5CC(C4)CC3C5)C2)cc(Br)c2ccccc12` (stereo unspecified), the Ki at Sigma 2 receptor turned out to be 70 nM; on D(3) dopamine receptor, 0.4 nM.
As to `O=C(NCCCCN1CCN(c2cccc(Cl)c2Cl)CC1)c1cccc2c1-c1ccccc1C2=O`, the Ki at D(3) dopamine receptor was 1.4 nM; on D(2) dopamine receptor, 89 nM.
For the molecule `O=C(NCCCCN1CCN(c2cccc(Cl)c2Cl)CC1)c1ccc2c(c1)Cc1ccccc1-2`, the values for the Ki on D(3) dopamine receptor and at D(2) dopamine receptor were 1.4 nM and 217 nM, respectively.
For the molecule `COc1c(C(=O)NCCN2CCN(c3cccc(Cl)c3Cl)CC2)cc(Br)c2ccccc12`, the inhibitory constant (Ki) on D(3) dopamine receptor was 8 nM; at D(2) dopamine receptor, above 10000 nM.
The matching figures for `COc1cc(Br)cc(-c2ccc(CN3CCc4ccccc4C3)[nH]2)c1OC`: 3.8 nM and 30 nM.
In turn, `COc1c(C(=O)NC[C@H]2CCCN2C2CCCCC2)cc(Br)c2ccccc12` registered a Ki at Sigma 2 receptor of 25 nM.
At Sigma 2 receptor, `COc1cc2c(cc1OC)CN(CCCCNC(=O)c1cc(Br)cc(OC)c1OC)CC2` gave a Ki of 8.2 nM.
